Measured values published in patent US12629358B2, “Compound used as RET kinase inhibitor and application thereof” (TYK MEDICINES, INC., priority 2019, dated 2026).
Changes are numbered by the printed parent chain.

Experiments:
[1] = target: wild-type RET kinase (Homo sapiens, UniProt P07949); test: Enzyme activity test against wild-type RET kinase (33P-ATP filter-binding kinase activity assay); format: biochemical; conditions: ATP Km concentration, 10 concentrations
Experimental: A biological activity test experiment was conducted below for some compounds of the above Examples and Comparative Example.
[…]. The biological activity screening of the compounds will be determined repeatedly at 10 concentrations.
Each sample was prepared into a solution with a concentration of 10 mM.
The test compound was dissolved in 100% dimethyl sulfoxide to a specific concentration. Integra Viaflo Assist was used to assist DMSO for (continuous) dilution.
Kinase was added to the newly prepared basic reaction buffer
Adding any desired cofactors to the substrate solution.
Adding wild-type RET kinase into the substrate solution and gently mixing;
Acoustic technology (Echo 550; Nanoliter range) was used to feed the compounds in 100% of dimethyl sulfoxide into the kinase reaction mixture and incubated at room temperature for 20 minutes.
33P-ATP (specific activity 10 Ci/l) was added to the reaction mixture to start the reaction.
Incubated at room temperature for 2 hours
Radioactivity was detected by filter-binding method.
Kinase activity data was expressed as the percentage of remaining kinase activity in the test sample compared to the vehicle (dimethyl sulfoxide) reaction. Prism (GRAPHPAD software) was used to obtain IC50 value and curve-fitting.

[2] = target: T1, Ba/F3-KIF5B-RET cells (Homo sapiens, UniProt P07949); test: Cell anti-proliferation experiment (CellTiter-Glo), Ba/F3-KIF5B-RET; format: cell-based; conditions: cell viability, 72 h
T1 construct: host or cells: Ba/F3 (BaF3 from RIKEN BRC CELL BANK); the other entry of the earlier key: KIF5B (P33176, Kinesin-1 heavy chain)
T1 sequence (P07949 713-1063 limits assumed): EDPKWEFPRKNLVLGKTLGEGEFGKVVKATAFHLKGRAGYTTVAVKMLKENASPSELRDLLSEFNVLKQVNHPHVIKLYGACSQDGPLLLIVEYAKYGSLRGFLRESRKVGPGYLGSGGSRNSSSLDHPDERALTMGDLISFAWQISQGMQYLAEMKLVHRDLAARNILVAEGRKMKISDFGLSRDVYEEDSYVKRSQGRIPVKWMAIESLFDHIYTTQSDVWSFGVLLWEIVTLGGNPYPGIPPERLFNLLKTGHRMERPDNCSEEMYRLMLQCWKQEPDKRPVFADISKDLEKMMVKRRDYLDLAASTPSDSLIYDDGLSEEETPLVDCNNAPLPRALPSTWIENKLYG
Experimental: (§1) Ba/F3-KIF5B-RET, Ba/F3-KIF5B-RET-V804L and Ba/F3-KIF5B-RET-V804M cells were constructed by PreceDo Pharmaceuticals Co., Ltd.
(§2) Ba/F3-KIF5B-RET, Ba/F3-KIF5B-RET-V804L and Ba/F3-KIF5B-RET-V804M medium: RPMI-1640+10% FBS+1% P/S.
(§3) A 1000× solution of the compound was prepared with DMSO, the compound was diluted to 20 times final concentration with a growth medium, and […] was added.
(§4) The suspended cells were rotated downward, resuscitated in the growth medium, and then counted with a cell counter. The cell suspension was diluted to the desired concentration in the growth medium. 95p L cell suspension was fed to a 96-well plate. 5 μL of 20× compound was added to the […], and the final DMSO concentration per well was 0.1%; incubated at 37° C. with 5% CO2 for 72 h
(§5) The plate was equilibrated to room temperature before measurement, 50 μl of CellTiter-Glo® reagent was added into each well, mixed on a shaker for 2 minutes, incubated at room temperature for 10 minutes, and recorded with Paradigm.
(§6) Cell viability was analyzed using Graphpad 7.0 software according to the formula Cell viability (CV %)=(RLU compound−RLU blank)/(RLU control−RLU blank)*100%, and the corresponding IC50 data were calculated as shown in Table 2

[3] = target: T2, Ba/F3-KIF5B-RET-V804M cells (Homo sapiens, UniProt P07949, V804M); test: Cell anti-proliferation experiment (CellTiter-Glo), Ba/F3-KIF5B-RET-V804M; format: cell-based; conditions: cell viability, 72 h
T2 construct: host or cells: Ba/F3 (BaF3 from RIKEN BRC CELL BANK); the other entry of the earlier key: KIF5B (P33176, Kinesin-1 heavy chain)
T2 sequence (P07949 713-1063 V804M limits assumed): T1 sequence (P07949 713-1063 limits assumed) with V92M
Experimental: as §1, §2, §3, §4, §5, §6

[4] = target: T3, Ba/F3-KIF5B-RET-V804L cells (Homo sapiens, UniProt P07949, V804L); test: Cell anti-proliferation experiment (CellTiter-Glo), Ba/F3-KIF5B-RET-V804L; format: cell-based; conditions: cell viability, 72 h
T3 construct: host or cells: Ba/F3 (BaF3 from RIKEN BRC CELL BANK); the other entry of the earlier key: KIF5B (P33176, Kinesin-1 heavy chain)
T3 sequence (P07949 713-1063 V804L limits assumed): T1 sequence (P07949 713-1063 limits assumed) with V92L
Experimental: as §1, §2, §3, §4, §5, §6

[5] = Metabolism test of drugs: plasma pharmacokinetics after intravenous and intragastric administration; format: in vivo; conditions: male, rat, SD rats, PO, 10 mg/kg, plasma
Experimental: Four small molecule compounds of BLU-667, compound C2, compound C4 and compound C8 were administered to SD rats by intravenous and intragastric administration respectively. Blood samples were collected at different time points to determine the concentration of drugs in plasma after administration and calculate the related pharmacokinetics parameters.
The vehicle of BLU-667, C2, C4 and C8 was 10% NMP+49% PEG400+1% Tween80+40% Water. The specific preparation method was as follows: proper amount of tested samples was weighed, dissolved in 10% NMP+49% PEG400+1% Tween80+40% Water, mixed well by vortex for later use.
LC-MS/MS was used by the analysis department of the experimental organization to detect and analyze the prepared solution of sample for test.
Healthy male SD rats were used in this research. Animal weight: 150-200 g. All animals fasted before administration, and resumed feeding 4 hours after administration.
Time points for blood collection were: • Intravenous administration (groups 1, 3 and 5): 0.0833, 0.25, 0.5, 1, 2, 4, 8, 12 and 24 hours after administration. (±2 min at time point ≤2 hr, ±15 min at other points.) • Oral administration: (groups 2, 4, 6 and 7): 0.25, 0.5, 1, 2, 4, 8, 12 and 24 hours after administration. (±2 m at time point […] at other points.)
About 0.1 mL of blood was collected from each animal through jugular vein every time, and EDTA or heparin sodium was used as anticoagulant. Blood samples were collected and placed on ice, and plasma was separated by centrifugation (centrifugation conditions: 5000 r/min, 6 min, 4° C.).
LC-MS/MS was used by the analysis department of the experimental organization to analyze the plasma samples of rats.
According to the data of blood drug concentration of the drug, the pharmacokinetic parameters AUC0→t, AUC0→∞, MRT0→∞, CMax, TMax, Vss, F, CL and T1/2 as well as their mean and standard deviation of the samples for test were calculated respectively by pharmacokinetic calculation software WinNonlin non-compartment model.
The main pharmacokinetic parameters of BLU-667, compound C2, compound C4 and compound C8 in plasma after intravenous and single oral administration of BLU-667, compound C2, compound C4 and compound C8 in SD rats were shown in Table 3

Chain of wild-type RET kinase (P07949 29-1114): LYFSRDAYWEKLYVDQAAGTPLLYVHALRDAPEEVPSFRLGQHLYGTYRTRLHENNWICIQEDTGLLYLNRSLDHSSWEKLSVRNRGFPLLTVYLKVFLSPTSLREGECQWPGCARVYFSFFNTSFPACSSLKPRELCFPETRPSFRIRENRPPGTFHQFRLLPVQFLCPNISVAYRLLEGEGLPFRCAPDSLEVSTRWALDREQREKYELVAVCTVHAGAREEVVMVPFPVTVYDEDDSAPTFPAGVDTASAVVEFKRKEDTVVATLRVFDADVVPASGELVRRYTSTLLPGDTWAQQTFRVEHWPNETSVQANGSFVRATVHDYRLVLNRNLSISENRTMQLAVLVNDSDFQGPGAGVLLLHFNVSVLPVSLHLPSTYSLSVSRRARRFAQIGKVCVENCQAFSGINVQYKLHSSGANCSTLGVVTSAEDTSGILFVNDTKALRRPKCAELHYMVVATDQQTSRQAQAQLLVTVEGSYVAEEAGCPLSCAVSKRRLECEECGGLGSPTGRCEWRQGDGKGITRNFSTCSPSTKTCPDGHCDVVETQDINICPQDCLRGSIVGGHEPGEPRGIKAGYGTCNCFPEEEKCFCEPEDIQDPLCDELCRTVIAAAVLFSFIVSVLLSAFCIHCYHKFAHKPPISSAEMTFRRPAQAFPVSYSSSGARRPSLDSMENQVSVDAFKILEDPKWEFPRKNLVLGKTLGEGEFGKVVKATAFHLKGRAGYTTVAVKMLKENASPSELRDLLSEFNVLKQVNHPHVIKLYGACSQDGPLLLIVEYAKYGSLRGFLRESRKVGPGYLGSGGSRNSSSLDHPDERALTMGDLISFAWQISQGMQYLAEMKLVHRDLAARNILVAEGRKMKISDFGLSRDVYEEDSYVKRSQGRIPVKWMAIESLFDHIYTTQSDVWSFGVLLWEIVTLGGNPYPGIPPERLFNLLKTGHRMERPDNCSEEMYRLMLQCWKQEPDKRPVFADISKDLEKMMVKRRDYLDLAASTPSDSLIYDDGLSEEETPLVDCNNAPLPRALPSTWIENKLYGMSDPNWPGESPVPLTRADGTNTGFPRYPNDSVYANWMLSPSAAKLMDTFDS

With `CO[C@]1(C(=O)N[C@@H](C)c2ccc(-n3cc(F)cn3)nc2)CC[C@@H](c2nc(Nc3cc(C)[nH]n3)cc3c2C(=O)NCC3)CC1` [Compound C19] the IC50 [1] was 64.7 nM.

In the case of `CO[C@]1(C(=O)N[C@@H](C)c2ccc(-n3cc(F)cn3)nc2)CC[C@H](c2nc(Nc3cc(C)[nH]n3)cc(C)c2C#N)CC1` [Compound C17], the IC50 [1] is reported as 1.26 nM.

`CO[C@]1(C(=O)N[C@@H](C)c2ccc(-n3cnc(Cl)n3)nc2)CC[C@H](c2nc(Nc3cc(C)[nH]n3)cc3cccnc32)CC1` [Compound C24] showed an IC50 [2] of 95.1 nM, an IC50 [3] of 182 nM and an IC50 [4] of 84 nM.

For `CO[C@]1(C(=O)N[C@@H](C)c2ccc(-n3cc(F)cn3)nc2)CC[C@H](c2nc(Nc3cc(C)[nH]n3)c(F)cc2C#N)CC1` [Compound C9], the IC50 [1] was 3.38 nM.

`CO[C@]1(C(=O)N[C@@H](C)c2ccc(-n3cc(F)cn3)nc2)CC[C@H](c2nc(Nc3cc(C)[nH]n3)cc3nccnc32)CC1` [Compound C14] showed an IC50 [2] of 54.1 nM, an IC50 [3] of 109 nM and an IC50 [4] of 46.8 nM.

`CO[C@]1(C(=O)N[C@@H](C)c2ccc(-n3cc(F)cn3)nc2)CC[C@H](c2nc(Nc3cc(C)[nH]n3)c3ccccc3n2)CC1` [Compound C15] gave an IC50 [2] of 4.6 nM, an IC50 [3] of 7.4 nM and an IC50 [4] of 2.8 nM.

Compound `COC1(C(=O)N[C@@H](C)c2ccc(-n3cc(F)cn3)nc2)CC=C(c2nc(Nc3cc(C)[nH]n3)cc3cccnc23)CC1` (stereo partly shown) [Compound C8] has an IC50 [1] of 1.53 nM, an AUC(0-inf) [5] of 2830 ng·h/mL and an AUC(0-t) [5] of 2800 ng·h/mL. It also gave a Cmax [5] of 824 ng/mL, a Tmax [5] of 2 h and a half-life [5] of 1.95 h. For the same compound, the MRT ([5]; read-out: MRTINF_ obs) was 2.85 h.

Compound `CO[C@]1(C(=O)N[C@@H](C)c2ccc(-n3cnc(C)n3)nc2)CC[C@H](c2nc(Nc3cc(C)[nH]n3)cc3cccnc32)CC1` [Compound C29] has an IC50 [2] of 146 nM, an IC50 [3] of 252 nM and an IC50 [4] of 118 nM.

For `CO[C@]1(C(=O)N[C@@H](C)c2ccc(-n3cc(F)cn3)nc2)CC[C@H](c2nc(Nc3cc(C)[nH]n3)cc3c2C(=O)NCC3)CC1` [Compound C18], the IC50 [1] was 1.52 nM.

In the case of `COC1(C(=O)N[C@@H](C)c2ccc(-n3cc(F)cn3)nc2)CC=C(c2ccc(C#N)c(Nc3cc(C)[nH]n3)n2)CC1` (stereo partly shown) [Comparative Example C32, reference compound], the “Wild-RET IC50” value [1] is reported as “no activity”.

With `COC1(C(=O)N[C@@H](C)c2ccc(-n3cc(F)cn3)nc2)CC=C(c2nc(Nc3cc(C)[nH]n3)c(F)cc2C#N)CC1` (stereo partly shown) [Compound C11] the IC50 [1] was 17.4 nM.

In the case of `CO[C@]1(C(=O)N[C@@H](C)c2ccc(-n3cc(F)cn3)nn2)CC[C@H](c2nc(Nc3cc(C)[nH]n3)cc3cccnc32)CC1` [Compound C27], the IC50 [2] is reported as 29.4 nM, the IC50 [3] is reported as 51.9 nM and the IC50 [4] is reported as 23 nM.

`CO[C@]1(C(=O)N[C@@H](C)c2ccc(-n3cc(F)cn3)nc2)CC[C@H](c2nc(Nc3cc(C)[nH]n3)cnc2C#N)CC1` [Compound C13] gave an IC50 [1] of 2.08 nM.

With `CO[C@]1(C(=O)N[C@@H](C)c2ccc(-n3cc(F)cn3)nc2)CC[C@@H](c2nc(Nc3cc(C)[nH]n3)cc3cccnc32)CC1` [Compound C3] the IC50 [1] was 241 nM.

Compound `COC1(C(=O)N[C@@H](C)c2ccc(-n3cc(F)cn3)nc2)CC=C(c2nc(Nc3cc(C)[nH]n3)ccc2C#N)CC1` (stereo partly shown) [Compound C7] has an IC50 [1] of 5.34 nM.

Work on `COC1(C(=O)N[C@@H](C)c2ccc(-n3cc(F)cn3)nc2)CC=C(c2nc(Nc3cc(C)[nH]n3)cnc2C#N)CC1` (stereo partly shown) [Compound C12] yielded an IC50 [1] of 16.1 nM.

In the case of `CO[C@]1(C(=O)N[C@@H](C)c2ccc(-n3cc(F)cn3)nc2)CC[C@@H](c2nc(Nc3cc(C)[nH]n3)cc(C)c2C#N)CC1` [Compound C16], the IC50 [1] is reported as 180 nM.

For `CO[C@]1(C(=O)N[C@@H](C)c2cnc(-n3cc(F)cn3)cn2)CC[C@H](c2nc(Nc3cc(C)[nH]n3)cc3cccnc32)CC1` [Compound C26], the IC50 [2] was 5.2 nM, the IC50 [3] was 7.9 nM and the IC50 [4] was 2.9 nM.

`CO[C@]1(C(=O)N[C@@H](C)c2ccc(-n3cc(F)cn3)nc2)CC[C@@H](c2nc(Nc3cc(C)[nH]n3)ccc2C#N)CC1` [Compound C1] showed an IC50 [1] of 146 nM.

In the case of `CO[C@]1(C(=O)N[C@@H](C)c2ccc(-n3cc(F)cn3)nc2)CC[C@H](c2nc(Nc3cc(C)[nH]n3)cc3c2N(C)CCC3)CC1` [Compound C6], the IC50 [1] is reported as 3.53 nM.

In the case of `CO[C@]1(C(=O)N[C@@H](C)c2ccc(-n3cc(F)cn3)nc2)CC[C@@H](c2nc(Nc3cc(C)[nH]n3)cc3c2N(C)CCC3)CC1` [Compound C5], the IC50 [1] is reported as 100 nM.

For `CO[C@]1(C(=O)N[C@@H](C)c2ccc(-n3cc(F)cn3)nc2)CC[C@@H](c2nc(Nc3cc(C)[nH]n3)c(F)cc2C#N)CC1` [Compound C10], the IC50 [1] was 262 nM.
